Measurements reported in US10597388B2, “Pyridazinone herbicides” (FMC CORPORATION, priority 2014, dated 2020).

Columns and labels:
Assay in all cases: Test D controlled growth environment herbicide test, pre- and postemergence
Assay type in all cases: in vivo
[1] = system: oat, wild (wild oat, Avena fatua)
In short: (§1)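 Species sown in silt loam and sprayed preemergence, or grown in peat-based medium to 2–18 cm (1- to 4-leaf stage) and sprayed postemergence, with compounds in non-phytotoxic solvent plus surfactant. Visual injury scored versus controls after 14–21 d in a controlled environment, 0 (no effect) to 100 (complete control).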

[2] = system: field violet (Viola arvensis)
In short: as §1

[3] = system: Russian thistle (Salsola kali)
In short: as §1

[4] = system: buckwheat, wild (wild buckwheat, Polygonum convolvulus)
In short: as §1

[5] = system: bromegrass, downy (downy bromegrass, Bromus tectorum)
In short: as §1

[6] = system: oilseed rape (Brassica napus)
In short: as §1

kochia (Kochia scoparia) = system: kochia (Kochia scoparia)
In short: as §1

[7] = system: chamomile (scentless chamomile, Matricaria inodora)
In short: as §1

[8] = system: lambsquarters (Chenopodium album)
In short: as §1

[9] = system: blackgrass (Alopecurus myosuroides)
In short: as §1

[10] = system: speedwell (bird's-eye speedwell, Veronica persica)
In short: as §1

[11] = system: galium (catchweed bedstraw, Galium aparine)
In short: as §1

[12] = system: pigweed (Amaranthus retroflexus)
In short: as §1

[13] = Postemergence, 31 g ai/ha, scale 0 to 100 (0 no effect, 100 complete control)
[14] = Postemergence, 125 g ai/ha, visual rating on scale 0 (no effect) to 100 (complete control), 14 to 21 d
[15] = Postemergence, 250 g ai/ha, scale 0 to 100 (0 no effect, 100 complete control)
[16] = Preemergence, 125 g ai/ha, scale 0 to 100 (0 no effect, 100 complete control)
[17] = Preemergence, 250 g ai/ha, scale 0 to 100 (0 no effect, 100 complete control)
[18] = postemergence, 62 g ai/ha, scale 0 to 100, 0 no effect, 100 complete control
[19] = Preemergence, 62 g ai/ha, scale 0 to 100 (0 no effect, 100 complete control)

## CC(=O)Oc1c(Br)nn(C)c(=O)c1-c1c(C)ccc2ccccc12 [Compound 129]
[1]; [13]
  Oat, Wild plant response rating: 90
[1]; [14]
  Plant response rating, Oat, Wild: 95
[1]; [15]
  Plant response rating, Oat, Wild: 100
[1]; Preemergence, 31 g ai/ha
  Plant response rating (scale of 0 to 100), Oat, Wild: 75
[1]; Preemergence, 62 g ai/ha
  Plant response rating (scale of 0 to 100), Oat, Wild: 75
[1]; [16]
  Plant response rating, Oat, Wild: 90
[1]; [17]
  Plant response rating, Oat, Wild: 100
[1]; [18]
  Plant response rating, Oat, Wild: 90
[2]; [13]
  Field Violet plant response rating: 65
[2]; [14]
  Plant response rating, Field Violet: 70
[2]; [15]
  Plant response rating, Field Violet: 75
[2]; Preemergence, 31 g ai/ha
  Plant response rating (scale of 0 to 100), Field Violet: 85
[2]; Preemergence, 62 g ai/ha
  Plant response rating (scale of 0 to 100), Field Violet: 85
[2]; [16]
  Plant response rating, Field Violet: 85
[2]; [17]
  Plant response rating, Field Violet: 100
[2]; [18]
  Plant response rating, Field Violet: 70
[3]; [13]
  Russian Thistle plant response rating: 70
[3]; [14]
  Plant response rating, Russian Thistle: 85
[3]; [15]
  Plant response rating, Russian Thistle: 90
[3]; Preemergence, 31 g ai/ha
  Plant response rating (scale of 0 to 100), Russian Thistle: 10
[3]; Preemergence, 62 g ai/ha
  Plant response rating (scale of 0 to 100), Russian Thistle: 50
[3]; [16]
  Plant response rating, Russian Thistle: 100
[3]; [17]
  Plant response rating, Russian Thistle: 100
[3]; [18]
  Plant response rating, Russian Thistle: 80
[4]; [13]
  Buckwheat, Wild plant response rating: 100
[4]; [14]
  Plant response rating, Buckwheat, Wild: 100
[4]; [15]
  Plant response rating, Buckwheat, Wild: 100
[4]; Preemergence, 31 g ai/ha
  Plant response rating (scale of 0 to 100), Buckwheat, Wild: 0
[4]; [19]
  Plant response rating, Buckwheat, Wild: 30
[4]; [16]
  Plant response rating, Buckwheat, Wild: 85
[4]; [17]
  Plant response rating, Buckwheat, Wild: 85
[4]; [18]
  Plant response rating, Buckwheat, Wild: 100
[5]; [13]
  Bromegrass, Downy plant response rating: 25
[5]; [14]
  Plant response rating, Bromegrass, Downy: 65
[5]; [15]
  Plant response rating, Bromegrass, Downy: 80
[5]; Preemergence, 31 g ai/ha
  Plant response rating (scale of 0 to 100), Bromegrass, Downy: 15
[5]; [19]
  Plant response rating, Bromegrass, Downy: 15
[5]; [16]
  Plant response rating, Bromegrass, Downy: 65
[5]; [17]
  Plant response rating, Bromegrass, Downy: 80
[5]; [18]
  Plant response rating, Bromegrass, Downy: 40
[6]; [13]
  Oilseed Rape plant response rating: 5
[6]; [14]
  Plant response rating, Oilseed Rape: 15
[6]; [15]
  Plant response rating, Oilseed Rape: 70
[6]; Preemergence, 31 g ai/ha
  Plant response rating (scale of 0 to 100), Oilseed Rape: 0
[6]; Preemergence, 62 g ai/ha
  Plant response rating (scale of 0 to 100), Oilseed Rape: 15
[6]; [16]
  Plant response rating, Oilseed Rape: 55
[6]; [17]
  Plant response rating, Oilseed Rape: 100
[6]; [18]
  Plant response rating, Oilseed Rape: 5
Kochia (Kochia scoparia); [13]
  Kochia plant response rating: 60
Kochia (Kochia scoparia); [14]
  Plant response rating, Kochia: 80
Kochia (Kochia scoparia); [15]
  Plant response rating, Kochia: 85
Kochia (Kochia scoparia); Preemergence, 31 g ai/ha
  Plant response rating (scale of 0 to 100), Kochia: 5
Kochia (Kochia scoparia); Preemergence, 62 g ai/ha
  Plant response rating (scale of 0 to 100), Kochia: 55
Kochia (Kochia scoparia); [16]
  Plant response rating, Kochia: 85
Kochia (Kochia scoparia); [17]
  Plant response rating, Kochia: 100
Kochia (Kochia scoparia); [18]
  Plant response rating, Kochia: 70
[7]; [13]
  Chamomile plant response rating: 100
[7]; [14]
  Plant response rating, Chamomile: 100
[7]; [15]
  Plant response rating, Chamomile: 100
[7]; Preemergence, 31 g ai/ha
  Plant response rating (scale of 0 to 100), Chamomile: 100
[7]; Preemergence, 62 g ai/ha
  Plant response rating (scale of 0 to 100), Chamomile: 100
[7]; [16]
  Plant response rating, Chamomile: 100
[7]; [17]
  Plant response rating, Chamomile: 100
[7]; [18]
  Plant response rating, Chamomile: 98
[8]; [13]
  Lambsquarters plant response rating: 75
[8]; [14]
  Plant response rating, Lambsquarters: 95
[8]; [15]
  Plant response rating, Lambsquarters: 100
[8]; Preemergence, 31 g ai/ha
  Plant response rating (scale of 0 to 100), Lambsquarters: 100
[8]; Preemergence, 62 g ai/ha
  Plant response rating (scale of 0 to 100), Lambsquarters: 75
[8]; [16]
  Plant response rating, Lambsquarters: 100
[8]; [17]
  Plant response rating, Lambsquarters: 100
[8]; [18]
  Plant response rating, Lambsquarters: 90
[9]; [13]
  Blackgrass plant response rating: 35
[9]; [14]
  Plant response rating, Blackgrass: 60
[9]; [15]
  Plant response rating, Blackgrass: 75
[9]; Preemergence, 31 g ai/ha
  Plant response rating (scale of 0 to 100), Blackgrass: 10
[9]; [19]
  Plant response rating, Blackgrass: 15
[9]; [16]
  Plant response rating, Blackgrass: 55
[9]; [17]
  Plant response rating, Blackgrass: 75
[9]; [18]
  Plant response rating, Blackgrass: 45
[10]; [13]
  Speedwell plant response rating: 35
[10]; [14]
  Plant response rating, Speedwell: 65
[10]; [15]
  Plant response rating, Speedwell: 75
[10]; Preemergence, 31 g ai/ha
  Plant response rating (scale of 0 to 100), Speedwell: 90
[10]; Preemergence, 62 g ai/ha
  Plant response rating (scale of 0 to 100), Speedwell: 100
[10]; [16]
  Plant response rating, Speedwell: 100
[10]; [17]
  Plant response rating, Speedwell: 100
[10]; [18]
  Plant response rating, Speedwell: 60
[11]; [13]
  Galium plant response rating: 90
[11]; [14]
  Plant response rating, Galium: 100
[11]; [15]
  Plant response rating, Galium: 100
[11]; Preemergence, 31 g ai/ha
  Plant response rating (scale of 0 to 100), Galium: 75
[11]; Preemergence, 62 g ai/ha
  Plant response rating (scale of 0 to 100), Galium: 90
[11]; [16]
  Plant response rating, Galium: 90
[11]; [17]
  Plant response rating, Galium: 95
[11]; [18]
  Plant response rating, Galium: 100
[12]; [13]
  Pigweed plant response rating: 98
[12]; [14]
  Plant response rating, Pigweed: 100
[12]; [15]
  Plant response rating, Pigweed: 100
[12]; Preemergence, 31 g ai/ha
  Plant response rating (scale of 0 to 100), Pigweed: 100
[12]; Preemergence, 62 g ai/ha
  Plant response rating (scale of 0 to 100), Pigweed: 100
[12]; [16]
  Plant response rating, Pigweed: 100
[12]; [17]
  Plant response rating, Pigweed: 98
[12]; [18]
  Plant response rating, Pigweed: 98
